Data reported in EP4782450A1, “NOVEL SKELETAL DERIVATIVE EFFECTIVE FOR HER2 MUTATION, AND PHARMACEUTICAL COMPOSITION COMPRISING SAME” (Hanmi Pharm. Co., Ltd., priority 2023, dated 2025).

Assays:
[1] = test system: wild-type EGFR overexpressing Ba/F3 cells; experiment: Growth inhibition of Ba/F3 cells engineered to overexpress wild-type EGFR (CellTiter-Glo luminescence); format: cell-based; settings: Mus musculus, BaF3, 72 hours, concentrations 10000 to 8 nM, read-out: Ba/F3 EGFR^WT GI50 class
In short: (§1)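 Ba/F3 cells overexpressing HER2 A775_G776insYVMA (1000–0.32 nM) or wild-type EGFR (10000–8 nM) treated 72 h at 37°C in RPMI/10% FBS. Viability by CellTiter-Glo luminescence; GI50 by nonlinear regression with untreated growth set at 100%.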

Ba/F3 HER2 A775insYVMA = experiment: Growth inhibition of Ba/F3 cells engineered to overexpress HER2 A775_G776insYVMA (CellTiter-Glo luminescence); format: cell-based; settings: Mus musculus, BaF3, 72 hours, concentrations 1000 to 0.32 nM, read-out: Ba/F3 HER2^YVMA GI50 class
In short: as §1

GI50 [1] [nM]	GI50 (Ba/F3 HER2 A775insYVMA) [nM]	Compound
1000 to 5000	100 to 1000	Cc1cc(Nc2ncnc3ccc(/C=C/CNC(=O)/C=C/[C@H]4CCCN4C)nc23)ccc1Oc1ccc2c(c1)ncn2C [Example 58, (E)-N-((E)-3-(4-((3-methyl-4-((1-methyl-1H-benzo[d]imidazol-5-yl)oxy)phenyl)amino)pyrido[3,2-d]pyrimidin-6-yl)allyl)-3-((R)-1-methylpyrrolidin-2-yl)acrylamide]
1000 to 5000	< 100	Cc1cc(Nc2ncnc3ccc(/C=C/CNC(=O)/C=C/CN4CCCCC4)nc23)ccc1Oc1ccc2c(c1)ncn2C [Example 59, (E)-N-((E)-3-(4-((3-methyl-4-((1-methyl-1H-benzo[d]imidazol-5-yl)oxy)phenyl)amino)pyrido[3,2-d]pyrimidin-6-yl)allyl)-4-(piperidin-1-yl)but-2-enamide]
> 5000	< 100	Cc1cc(Nc2ncnc3ccc(/C=C/CNC(=O)/C=C/CN4CCOCC4)nc23)ccc1Oc1ccc2c(c1)ncn2C [Example 60, (E)-N-((E)-3-(4-((3-methyl-4-((1-methyl-1H-benzo[d]imidazol-5-yl)oxy)phenyl)amino)pyrido[3,2-d]pyrimidin-6-yl)allyl)-4-morpholinobut-2-enamide]
1000 to 5000	< 100	Cc1cc(Nc2ncnc3ccc(/C=C/CN(C)C(=O)/C=C/CN4CCCCC4)nc23)ccc1Oc1ccc2c(c1)ncn2C [Example 61, (E)-N-methyl-N-((E)-3-(4-((3-methyl-4-((1-methyl-1H-benzo[d]imidazol-5-yl)oxy)phenyl)amino)pyrido[3,2-d]pyrimidin-6-yl)allyl)-4-(piperidin-1-yl)but-2-enamide]
> 5000	100 to 1000	Cc1cc(Nc2ncnc3ccc(/C=C/CN(C)C(=O)/C=C/CN4CCOCC4)nc23)ccc1Oc1ccc2c(c1)ncn2C [Example 62, (E)-N-methyl-N-((E)-3-(4-((3-methyl-4-((1-methyl-1H-benzo[d]imidazol-5-yl)oxy)phenyl)amino)pyrido[3,2-d]pyrimidin-6-yl)allyl)-4-morpholinobut-2-enamide]
1000 to 5000	100 to 1000	C=CC(=O)N(C)c1cccc(/C=C/c2ccc3ncnc(Nc4ccc(Oc5ccc6c(c5)ncn6C)c(C)c4)c3n2)c1 [Example 63, (E)-N-methyl-N-(3-(2-(4-((3-methyl-4-((1-methyl-1H-benzo[d]imidazol-5-yl)oxy)phenyl)amino)pyrido[3,2-d]pyrimidin-6-yl)vinyl)phenyl)acrylamide]
> 5000	100 to 1000	C=CC(=O)Nc1cccc(/C=C/c2ccc3ncnc(Nc4ccc(Oc5ccc6c(c5)ncn6C)c(C)c4)c3n2)c1 [Example 64, (E)-N-(3-(2-(4-((3-methyl-4-((1-methyl-1H-benzo[d]imidazol-5-yl)oxy)phenyl)amino)pyrido[3,2-d]pyrimidin-6-yl)vinyl)phenyl)acrylamide]
100 to 1000	< 100	C=CC(=O)N(C)CC#Cc1ccc2ncnc(Nc3ccc(Oc4ccn5ncnc5c4)c(C)c3)c2c1 [Example 65, N-(3-(4-((4-([1,2,4]triazolo[1,5-a]pyridin-7-yloxy)-3-methylphenyl)amino)quinazolin-6-yl)prop-2-yn-1-yl)-N-methylacrylamide]
1000 to 5000	1000 to 5000	C=CC(=O)N(C)CC#Cc1cnc2ncnc(Nc3ccc(Oc4ccn5ncnc5c4)c(C)c3)c2c1 [Example 66, N-(3-(4-((4-([1,2,4]triazolo[1,5-a]pyridin-7-yloxy)-3-methylphenyl)amino)pyrido[2,3-d]pyrimidin-6-yl)prop-2-yn-1-yl)-N-methylacrylamide]
100 to 1000	100 to 1000	C=CC(=O)N(C)CC#Cc1cc2c(Nc3ccc(Oc4ccn5ncnc5c4)c(C)c3)ncnc2cn1 [Example 67, N-(3-(4-((4-([1,2,4]triazolo[1,5-a]pyridin-7-yloxy)-3-methylphenyl)amino)pyrido[3,4-d]pyrimidin-6-yl)prop-2-yn-1-yl)-N-methylacrylamide]
100 to 1000	< 100	C=CC(=O)N(C)CC#Cc1ccc2ncnc(Nc3ccc(Oc4ccn5ncnc5c4)c(C)c3)c2n1 [Example 68, N-(3-(4-((4-([1,2,4]triazolo[1,5-a]pyridin-7-yloxy)-3-methylphenyl)amino)pyrido[3,2-d]pyrimidin-6-yl)prop-2-yn-1-yl)-N-methylacrylamide]
100 to 1000	100 to 1000	C=CC(=O)N(C)CC#Cc1ncc2ncnc(Nc3ccc(Oc4ccn5ncnc5c4)c(C)c3)c2n1 [Example 69, N-(3-(8-((4-([1,2,4]triazolo[1,5-a]pyridin-7-yloxy)-3-methylphenyl)amino)pyrimido[5,4-d]pyrimidin-2-yl)prop-2-yn-1-yl)-N-methylacrylamide]
1000 to 5000	100 to 1000	C=CC(=O)N(C)CC#Cc1ccc2ncc(C#N)c(Nc3ccc(Oc4ccn5ncnc5c4)c(C)c3)c2c1 [Example 70, N-(3-(4-((4-([1,2,4]triazolo[1,5-a]pyridin-7-yloxy)-3-methylphenyl)amino)-3-cyanoquinolin-6-yl)prop-2-yn-1-yl)-N-methylacrylamide]
1000 to 5000	100 to 1000	C=CC(=O)N(C)CC#Cc1ccc2ncnc(Nc3ccc(Oc4ccc5c(c4)ncn5C)c(C)c3)c2n1 [Example 71, N-methyl-N-(3-(4-((3-methyl-4-((1-methyl-1H-benzo[d]imidazol-5-yl)oxy)phenyl)amino)pyrido[3,2-d]pyrimidin-6-yl)prop-2-yn-1-yl)acrylamide]
1000 to 5000	1000 to 5000	C=CC(=O)N(C)CC#Cc1cc2c(Nc3ccc(Oc4ccn5ncnc5c4)c(C)c3)ncnc2cc1OC [Example 73, N-(3-(4-((4-([1,2,4]triazolo[1,5-a]pyridin-7-yloxy)-3-methylphenyl)amino)-7-methoxyquinazolin-6-yl)prop-2-yn-1-yl)-N-methylacrylamide]
< 100	< 100	C=CC(=O)N1CCC[C@@H]1C#Cc1ccc2ncnc(Nc3ccc(Oc4ccn5ncnc5c4)c(C)c3)c2c1 [Example 74, (R)-1-(2-((4-((4-([1,2,4]triazolo[1,5-a]pyridin-7-yloxy)-3-methylphenyl)amino)quinazolin-6-yl)ethynyl)pyrrolidin-1-yl)prop-2-en-1-one]
100 to 1000	< 100	C=CC(=O)N1CCC[C@H]1C#Cc1ccc2ncnc(Nc3ccc(Oc4ccn5ncnc5c4)c(C)c3)c2c1 [Example 75, (S)-1-(2-((4-((4-([1,2,4]triazolo[1,5-a]pyridin-7-yloxy)-3-methylphenyl)amino)quinazolin-6-yl)ethynyl)pyrrolidin-1-yl)prop-2-en-1-one]
100 to 1000	< 100	C=CC(=O)N1CCCC[C@@H]1C#Cc1ccc2ncnc(Nc3ccc(Oc4ccn5ncnc5c4)c(C)c3)c2c1 [Example 76, (R)-1-(2-((4-((4-([1,2,4]triazolo[1,5-a]pyridin-7-yloxy)-3-methylphenyl)amino)quinazolin-6-yl)ethynyl)piperidin-1-yl)prop-2-en-1-one]
< 100	< 100	C=CC(=O)N1CCCC[C@H]1C#Cc1ccc2ncnc(Nc3ccc(Oc4ccn5ncnc5c4)c(C)c3)c2c1 [Example 77, (S)-1-(2-((4-((4-([1,2,4]triazolo[1,5-a]pyridin-7-yloxy)-3-methylphenyl)amino)quinazolin-6-yl)ethynyl)piperidin-1-yl)prop-2-en-1-one]
100 to 1000	< 100	C=CC(=O)N1CC[C@@H]1C#Cc1ccc2ncnc(Nc3ccc(Oc4ccn5ncnc5c4)c(C)c3)c2c1 [Example 78, (R)-1-(2-((4-((4-([1,2,4]triazolo[1,5-a]pyridin-7-yloxy)-3-methylphenyl)amino)quinazolin-6-yl)ethynyl)azetidin-1-yl)prop-2-en-1-one]
1000 to 5000	1000 to 5000	C=CC(=O)N1CC[C@H]1C#Cc1ccc2ncnc(Nc3ccc(Oc4ccn5ncnc5c4)c(C)c3)c2c1 [Example 79, (S)-1-(2-((4-((4-([1,2,4]triazolo[1,5-a]pyridin-7-yloxy)-3-methylphenyl)amino)quinazolin-6-yl)ethynyl)azetidin-1-yl)prop-2-en-1-one]
100 to 1000	< 100	C=CC(=O)N1CCC[C@@H]1C#Cc1ccc2ncnc(Nc3ccc(Oc4ccn5ncnc5c4)c(C)c3)c2n1 [Example 80, (R)-1-(2-((4-((4-([1,2,4]triazolo[1,5-a]pyridin-7-yloxy)-3-methylphenyl)amino)pyrido[3,2-d]pyrimidin-6-yl)ethynyl)pyrrolidin-1-yl)prop-2-en-1-one]
100 to 1000	< 100	C=CC(=O)N1CCC[C@H]1C#Cc1ccc2ncnc(Nc3ccc(Oc4ccn5ncnc5c4)c(C)c3)c2n1 [Example 81, (S)-1-(2-((4-((4-([1,2,4]triazolo[1,5-a]pyridin-7-yloxy)-3-methylphenyl)amino)pyrido[3,2-d]pyrimidin-6-yl)ethynyl)pyrrolidin-1-yl)prop-2-en-1-one]
100 to 1000	< 100	C=CC(=O)N1CCCC[C@@H]1C#Cc1ccc2ncnc(Nc3ccc(Oc4ccn5ncnc5c4)c(C)c3)c2n1 [Example 82, (R)-1-(2-((4-((4-([1,2,4]triazolo[1,5-a]pyridin-7-yloxy)-3-methylphenyl)amino)pyrido[3,2-d]pyrimidin-6-yl)ethynyl)piperidin-1-yl)prop-2-en-1-one]
< 100	< 100	C=CC(=O)N1CCC[C@@H]1C#Cc1ncc2ncnc(Nc3ccc(Oc4ccn5ncnc5c4)c(C)c3)c2n1 [Example 83, (R)-1-(2-((8-((4-([1,2,4]triazolo[1,5-a]pyridin-7-yloxy)-3-methylphenyl)amino)pyrimido[5,4-d]pyrimidin-2-yl)ethynyl)pyrrolidin-1-yl)prop-2-en-1-one]

Compound	GI50 [1] [nM]	GI50 (Ba/F3 HER2 A775insYVMA) [nM]
C=CC(=O)N(C)CC#Cc1ncc2ncnc(Nc3ccc(Oc4ccc5c(c4)ncn5C)c(C)c3)c2n1 [Example 72]	< 100	100 to 1000
